Biological target: T1, Caspase-1 (Homo sapiens, UniProt P29466)
T1 sequence (P29466 whole entry): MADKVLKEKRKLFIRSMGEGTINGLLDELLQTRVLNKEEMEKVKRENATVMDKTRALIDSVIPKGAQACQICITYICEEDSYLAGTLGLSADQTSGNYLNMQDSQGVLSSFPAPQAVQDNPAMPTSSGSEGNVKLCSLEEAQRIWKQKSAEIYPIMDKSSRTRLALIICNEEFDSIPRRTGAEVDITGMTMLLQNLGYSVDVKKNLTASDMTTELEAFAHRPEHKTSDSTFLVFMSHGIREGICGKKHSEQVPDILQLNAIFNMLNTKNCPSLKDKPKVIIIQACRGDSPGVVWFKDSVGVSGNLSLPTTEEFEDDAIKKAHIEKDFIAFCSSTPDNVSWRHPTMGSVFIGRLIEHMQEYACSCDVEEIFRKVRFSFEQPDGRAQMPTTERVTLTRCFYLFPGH
Test: The compound was tested for its inhibitory activity against IL-1 beta converting enzyme

Structure (SMILES) | Ki [µM]
CC(C)[C@H](NC(=O)CCc1ccccc1)C(=O)N[C@@H](C)C(=O)N[C@@H](CC(=O)O)C(=O)Cc1ccccc1 | 3.1
CC(=O)N[C@@H](Cc1ccc(O)cc1)C(=O)N[C@H](C(=O)N[C@@H](C)C(=O)N[C@@H](CC(=O)O)C(=O)CCCCCc1ccccc1)C(C)C | 0.0185
CC(=O)N[C@@H](Cc1ccc(O)cc1)C(=O)N[C@H](C(=O)N[C@@H](C)C(=O)N[C@@H](CC(=O)O)C(=O)CCCCc1ccccc1)C(C)C | 0.042
CC(=O)N[C@@H](Cc1ccc(O)cc1)C(=O)N[C@H](C(=O)N[C@@H](C)C(=O)N[C@@H](CC(=O)O)C(=O)C1CCCCC1)C(C)C | > 100
CC(=O)N[C@@H](Cc1ccc(O)cc1)C(=O)N[C@H](C(=O)N[C@@H](C)C(=O)N[C@@H](CC(=O)O)C(=O)c1ccccc1)C(C)C (stereo in doubt; 7c) | > 100
CC(=O)N[C@@H](Cc1ccc(O)cc1)C(=O)NC(C(=O)N[C@@H](C)C(=O)NC(CC(=O)O)C(C)=O)C(C)C (single isomer, unassigned) | > 10
CC(=O)N[C@@H](Cc1ccc(O)cc1)C(=O)N[C@H](C(=O)N[C@@H](C)C(=O)N[C@@H](CC(=O)O)C(=O)c1ccccc1)C(C)C (stereo in doubt) | 10

The next lines start with the values.

Ki [µM] | Structure (SMILES)
0.61 | CC(C)[C@H](NC(=O)CCc1ccccc1)C(=O)N[C@@H](C)C(=O)N[C@@H](CC(=O)O)C(=O)CCc1ccccc1
0.1 | CC(C)[C@H](NC(=O)CCc1ccccc1)C(=O)N[C@@H](C)C(=O)N[C@@H](CC(=O)O)C(=O)CCCc1ccccc1
4 | CCC(=O)[C@H](CC(=O)O)NC(=O)[C@H](C)NC(=O)[C@@H](NC(=O)[C@H](Cc1ccc(O)cc1)NC(C)=O)C(C)C
